How the values were obtained:
MDCK-MDR1 monolayers = test: Bidirectional transport and verapamil inhibition across MDCK-MDR1 monolayers; format: in vitro ADME
human CYP2D6 = human CYP2D6 (Homo sapiens, UniProt P10635); test: Metabolism by recombinant human CYP2D6 Supersomes; format: in vitro ADME
rat CYP2C11 = molecular target: T1, rat CYP2C11 (Rattus norvegicus, UniProt P08683); test: Metabolism by recombinant rat CYP2C11 Supersomes; format: in vitro ADME
T1 sequence (P08683 1-500): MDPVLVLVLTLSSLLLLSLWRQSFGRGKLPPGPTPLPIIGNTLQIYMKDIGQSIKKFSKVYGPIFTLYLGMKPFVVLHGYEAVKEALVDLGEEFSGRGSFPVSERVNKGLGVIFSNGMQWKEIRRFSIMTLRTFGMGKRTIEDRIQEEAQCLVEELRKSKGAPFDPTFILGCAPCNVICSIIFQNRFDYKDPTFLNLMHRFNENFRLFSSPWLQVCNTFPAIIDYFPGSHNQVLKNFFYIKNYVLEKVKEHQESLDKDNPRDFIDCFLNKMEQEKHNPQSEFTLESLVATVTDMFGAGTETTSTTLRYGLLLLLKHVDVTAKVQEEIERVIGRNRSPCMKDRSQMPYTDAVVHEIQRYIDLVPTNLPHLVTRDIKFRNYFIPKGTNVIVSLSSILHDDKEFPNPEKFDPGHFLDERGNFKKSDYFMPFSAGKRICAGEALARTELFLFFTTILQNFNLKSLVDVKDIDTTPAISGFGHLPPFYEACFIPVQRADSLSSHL

[1] = Pharmacokinetics and brain uptake after i.v. dosing; format: in vivo, male Sprague–Dawley rats; conditions: for AUC0–1440 min (plasma): noncompartmental analysis
histamine H1 receptors = conditions: read-out: H1 Ki; mean ± SEM; cited from earlier work
DA uptake = conditions: read-out: DA Uptake IC50; mean ± SEM; cited from earlier work
[2] = MDCK-MDR1, 0.1 mM, absence of verapamil, mean ± SD (n = 3)
[3] = population PK estimate (% CV), i.v. 5 and 10 mg/kg combined, n = 54 rats

Chain of human CYP2D6 (P10635 whole entry): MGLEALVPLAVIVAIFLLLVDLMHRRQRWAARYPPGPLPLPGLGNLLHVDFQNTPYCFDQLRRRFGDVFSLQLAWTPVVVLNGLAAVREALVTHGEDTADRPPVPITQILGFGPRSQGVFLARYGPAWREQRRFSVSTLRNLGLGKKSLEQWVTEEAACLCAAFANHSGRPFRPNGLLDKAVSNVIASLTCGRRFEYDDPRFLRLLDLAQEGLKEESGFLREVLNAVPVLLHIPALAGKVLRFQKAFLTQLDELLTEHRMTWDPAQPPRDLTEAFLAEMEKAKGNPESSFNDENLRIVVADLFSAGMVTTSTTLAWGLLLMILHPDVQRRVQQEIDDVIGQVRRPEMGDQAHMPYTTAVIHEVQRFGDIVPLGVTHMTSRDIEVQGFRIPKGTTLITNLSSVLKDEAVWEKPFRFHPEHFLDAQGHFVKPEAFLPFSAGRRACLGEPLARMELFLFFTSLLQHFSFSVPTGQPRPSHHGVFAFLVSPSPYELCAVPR

CC(C)[C@@H](N)CN1C2CCC1CC(OC(c1ccc(F)cc1)c1ccc(F)cc1)C2 (stereo partly drawn) [GA2-50, N-((R)-2″-amino-3″-methyl-n-butyl)-3α-[(bis-4′-fluorophenyl)methoxy]tropane]
Permeability relative to JHW 025 (MDCK-MDR1 monolayers; MDCK-MDR1): around 6.8 fold | Efflux Ratio (MDCK-MDR1 monolayers; MDCK-MDR1, 0.1 mM, Papp(B-A)/Papp(A-B)): 3.4 | Papp A-B (MDCK-MDR1 monolayers; [2]): 34.01 ± 2.78 × 10^−6 cm/s | Papp B-A (MDCK-MDR1 monolayers; [2]): 116.97 ± 5.23 × 10^−6 cm/s | Enhancement ratio of A-B transport by verapamil (MDCK-MDR1 monolayers; MDCK-MDR1, verapamil 200 μM): 2.3 | P-gp substrate status (MDCK-MDR1 monolayers; polarized transport across MDCK-MDR1 and Caco-2, verapamil-sensitive): substrate for the efflux transporter P-gp | Intrinsic Clearance (human CYP2D6; Human CYP 2D6 50 pmol/mL, 4 μM): 0.15 ± 0.02 (b) microliters per minute per picomole of P450 | Substrate disappearance after 60 min incubation vs control (human CYP2D6; human CYP2D6, 10 μM, 50 pmol/mL P450, p < 0.05): statistically significant disappearance | Intrinsic Clearance (rat CYP2C11; Rat CYP 2C11 50 pmol/mL, 4 μM): 0.23 ± 0.01 (a) microliters per minute per picomole of P450 | Substrate disappearance after 60 min incubation vs control (rat CYP2C11; rat CYP2C11, 10 μM, 50 pmol/mL P450, p < 0.05): statistically significant disappearance | Intrinsic clearance, fold lower than 4′,4″-diCl BZT (rat CYP2C11; rat CYP2C11, comparator values ref 26): 6.3 fold | brain-to-plasma partition coefficient (Ri) ([1]; 5 mg/kg i.v., AUC0–1440 min brain/plasma): 10.1 | AUC0–1440 min (plasma) ([1]; 5 mg/kg i.v.): 141.8 µg·min/mL | maximal total brain concentration ([1]; 10 mg/kg i.v.): approximately 5 μg/g | brain-to-plasma partition coefficient (Ri) ([1]; 10 mg/kg i.v., AUC0–1440 min brain/plasma): 9.6 | AUC0–1440 min (plasma) ([1]; 10 mg/kg i.v.): 258.0 µg·min/mL | Vss ([1]; Table 4, secondary parameter from NONMEM empirical Bayes estimates, i.v., rats): 622 mL/min/kg | signs of toxicity ([1]; i.v. 5 or 10 mg/kg): did not show any signs of toxicity | brain-to-plasma partition coefficient (Ri) ([1]; overall, dose not specified): ~ 10 | CL [1, 3]: 1.34 (9.3) L/h/kg | Q [1, 3]: 7.8 (19.9) L/h/kg | Vc [1, 3]: 8.09 (13.6) L/kg | Vp [1, 3]: 27.9 (10.5) L/kg | t1/2 (elimination half-life) ([1]; secondary parameter from NONMEM empirical Bayes estimates, i.v., rats): 19.2 h | Ki (histamine H1 receptors): 218 ± 15.5 nM | IC50 (DA uptake): 20.7 ± 2.85 nM

Reference: publication PMC2673089 (Journal of pharmaceutical sciences, 2008)
